The text below walks through data of US20260297081A1, “COMPOUNDS AND METHODS OF TREATING CANCERS” (Cullgen Inc., priority 2023, published 2026).

What is called IC50 is the concentration at which inhibition is half-maximal.

The assay has as its system MCF7 cells. Nature of the assay: Anti-proliferation (viability) of MCF7 cells (Table 7, FIG. 2B). The class given is cell-based. The settings on record: Homo sapiens, MCF7, MCF7 cells, 3-6 days, 10-point serial dilution; read-out: GI IC50 in MCF-7.

On to `CNc1ccc(C(=O)Nc2ccc(N(C)C)nn2)c(NC2CC(C(=O)N3CCC4(CC3)CCN(c3ccc(Nc5ncc6c(C)c(C(C)=O)c(=O)n(C7CCCC7)c6n5)nc3)CC4)C2)n1` (centres unmarked) [CPD-337, 2-((3-(9-(6-((6-acetyl-8-cyclopentyl-5-methyl-7-oxo-7,8-dihydropyrido[2,3-d]pyrimidin-2-yl)amino)pyridin-3-yl)-3,9-diazaspiro[5.5]undecane-3-carbonyl)cyclobutyl)amino)-N-(6-(dimethylamino)pyridazin-3-yl)-6-(methylamino)nicotinamide], for which the IC50 is over 100 nM.

Regarding `[2H]C([2H])([2H])Nc1ccc(C(=O)Nc2cn(C)c(C3CC3)n2)c(NC2CC3(C2)CN(C(=O)CC(C)N2CCN(c4ccc(Nc5ncc6c(C)c(C(C)=O)c(=O)n(C7CCCC7)c6n5)nc4)CC2)C3)n1` (centres unmarked) [CPD-339, 2-((2-(3-(4-(6-((6-acetyl-8-cyclopentyl-5-methyl-7-oxo-7,8-dihydropyrido[2,3-d]pyrimidin-2-yl)amino)pyridin-3-yl)piperazin-1-yl)butanoyl)-2-azaspiro[3.3]heptan-6-yl)amino)-N-(2-cyclopropyl-1-methyl-1H-imidazol-4-yl)-6-((methyl-d3)amino)nicotinamide], the IC50 is 50 to 100 nM. On to `CNc1ccc(C(=O)Nc2cn(C)c(C(C)(C)O)n2)c(NC2CC3(CC(NC(=O)CN4CCN(c5ccc(Nc6ncc7c(C)c(C(C)=O)c(=O)n(C8CCCC8)c7n6)nc5)CC4)C3)C2)n1` (centres unmarked) [CPD-340, 2-((6-(2-(4-(6-((6-acetyl-8-cyclopentyl-5-methyl-7-oxo-7,8-dihydropyrido[2,3-d]pyrimidin-2-yl)amino)pyridin-3-yl)piperazin-1-yl)acetamido)spiro[3.3]heptan-2-yl)amino)-N-(2-(2-hydroxypropan-2-yl)-1-methyl-1H-imidazol-4-yl)-6-(methylamino)nicotinamide], for which the IC50 is over 100 nM. For the compound `[2H]C([2H])([2H])Nc1ccc(C(=O)Nc2ccc(N(C)C)nn2)c(NC2CC(CNC(=O)CN3CCN(c4ccc(Nc5ncc6c(C)c(C(C)=O)c(=O)n(C7CCCC7)c6n5)nc4)CC3)C2)n1` (centres unmarked) [CPD-343, 2-((3-((2-(4-(6-((6-acetyl-8-cyclopentyl-5-methyl-7-oxo-7,8-dihydropyrido[2,3-d]pyrimidin-2-yl)amino)pyridin-3-yl)piperazin-1-yl)acetamido)methyl)cyclobutyl)amino)-N-(6-(dimethylamino)pyridazin-3-yl)-6-((methyl-d3)amino)nicotinamide], the IC50 was 50 to 100 nM. Consider `CNc1ccc(C(=O)Nc2ccc(N(C)C)nn2)c(NCC2(F)CN(C(=O)CN3CCN(c4ccc(Nc5ncc6c(C)c(C(C)=O)c(=O)n(C7CCCC7)c6n5)nc4)CC3)C2)n1` [CPD-344, 2-(((1-(2-(4-(6-((6-acetyl-8-cyclopentyl-5-methyl-7-oxo-7,8-dihydropyrido[2,3-d]pyrimidin-2-yl)amino)pyridin-3-yl)piperazin-1-yl)acetyl)-3-fluoroazetidin-3-yl)methyl)amino)-N-(6-(dimethylamino)pyridazin-3-yl)-6-(methylamino)nicotinamide], for which the IC50 is over 100 nM.

Take `CNc1ccc(C(=O)Nc2ccc(N(C)C)nn2)c(NCC23CC(NC(=O)CN4CCN(c5ccc(Nc6ncc7c(C)c(C(C)=O)c(=O)n(C8CCCC8)c7n6)nc5)CC4)(C2)C3)n1` [CPD-345, 2-(((3-(2-(4-(6-((6-acetyl-8-cyclopentyl-5-methyl-7-oxo-7,8-dihydropyrido[2,3-d]pyrimidin-2-yl)amino)pyridin-3-yl)piperazin-1-yl)acetamido)bicyclo[1.1.1]pentan-1-yl)methyl)amino)-N-(6-(dimethylamino)pyridazin-3-yl)-6-(methylamino)nicotinamide]: the concentration for half-maximal inhibition (IC50) is over 100 nM. As to `CNc1ccc(C(=O)Nc2ccc(N(C)C)nn2)c(NC23CC(NC(=O)CN4CCN(c5ccc(Nc6ncc7c(C)c(C(C)=O)c(=O)n(C8CCCC8)c7n6)nc5)CC4)(C2)C3)n1` [CPD-346, 2-((3-(2-(4-(6-((6-acetyl-8-cyclopentyl-5-methyl-7-oxo-7,8-dihydropyrido[2,3-d]pyrimidin-2-yl)amino)pyridin-3-yl)piperazin-1-yl)acetamido)bicyclo[1.1.1]pentan-1-yl)amino)-N-(6-(dimethylamino)pyridazin-3-yl)-6-(methylamino)nicotinamide], the 50% inhibitory concentration (IC50) is over 100 nM. Consider `CNc1ccc(C(=O)Nc2cn(C)c(C3CC3)n2)c(NC2CCC3(CC2)CC(NC(=O)CN2CCN(c4ccc(Nc5ncc6c(C)c(C(C)=O)c(=O)n(C7CCCC7)c6n5)nc4)CC2)C3)n1` (centres unmarked) [CPD-347, 2-((2-(2-(4-(6-((6-acetyl-8-cyclopentyl-5-methyl-7-oxo-7,8-dihydropyrido[2,3-d]pyrimidin-2-yl)amino)pyridin-3-yl)piperazin-1-yl)acetamido)spiro[3.5]nonan-7-yl)amino)-N-(2-cyclopropyl-1-methyl-1H-imidazol-4-yl)-6-(methylamino)nicotinamide], for which the IC50 is over 100 nM.

As to `CNc1ccc(C(=O)Nc2ccc(N(C)C)nn2)c(NC2CC3(C2)CN(C(=O)C2CC(N4CCN(c5ccc(Nc6ncc7c(C)c(C(C)=O)c(=O)n(C8CCCC8)c7n6)nc5)CC4)C2)C3)n1` (centres unmarked) [CPD-348, 2-((2-(3-(4-(6-((6-acetyl-8-cyclopentyl-5-methyl-7-oxo-7,8-dihydropyrido[2,3-d]pyrimidin-2-yl)amino)pyridin-3-yl)piperazin-1-yl)cyclobutane-1-carbonyl)-2-azaspiro[3.3]heptan-6-yl)amino)-N-(6-(dimethylamino)pyridazin-3-yl)-6-(methylamino)nicotinamide], the IC50 was over 100 nM.

Consider `CC(=O)c1c(C)c2cnc(Nc3ccc(N4CCN(CC(=O)NC5CC6(C5)CC(Nc5nc(C(C)O)ccc5C(=O)Nc5cn(C)c(C7CC7)n5)C6)CC4)cn3)nc2n(C2CCCC2)c1=O` (centres unmarked) [CPD-349, 2-((6-(2-(4-(6-((6-acetyl-8-cyclopentyl-5-methyl-7-oxo-7,8-dihydropyrido[2,3-d]pyrimidin-2-yl)amino)pyridin-3-yl)piperazin-1-yl)acetamido)spiro[3.3]heptan-2-yl)amino)-N-(2-cyclopropyl-1-methyl-1H-imidazol-4-yl)-6-(1-hydroxyethyl)nicotinamide], for which the IC50 was over 100 nM. The figure for `CNc1ccc(C(=O)Nc2ccc(N(C)C)nn2)c(NC2CCC(C(=O)N3CCC4(CC3)CCN(c3ccc(Nc5ncc6c(C)c(C(C)=O)c(=O)n(C7CCCC7)c6n5)nc3)CC4)CC2)n1` (centres unmarked) [CPD-350, 2-((4-(9-(6-((6-acetyl-8-cyclopentyl-5-methyl-7-oxo-7,8-dihydropyrido[2,3-d]pyrimidin-2-yl)amino)pyridin-3-yl)-3,9-diazaspiro[5.5]undecane-3-carbonyl)cyclohexyl)amino)-N-(6-(dimethylamino)pyridazin-3-yl)-6-(methylamino)nicotinamide] is over 100 nM; for `CNc1ccc(C(=O)Nc2ccc(N(C)C)nn2)c(NC2CCC(C(=O)N3CC4(CCN(c5ccc(Nc6ncc7c(C)c(C(C)=O)c(=O)n(C8CCCC8)c7n6)nc5)CC4)C3)CC2)n1` (centres unmarked) [CPD-351, 2-((4-(7-(6-((6-acetyl-8-cyclopentyl-5-methyl-7-oxo-7,8-dihydropyrido[2,3-d]pyrimidin-2-yl)amino)pyridin-3-yl)-2,7-diazaspiro[3.5]nonane-2-carbonyl)cyclohexyl)amino)-N-(6-(dimethylamino)pyridazin-3-yl)-6-(methylamino)nicotinamide] it is over 100 nM; for `CC(=O)c1c(C)c2cnc(Nc3ccc(N4CCN(CC(=O)NC5CC6(C5)CC(Nc5nc(C(C)(C)O)ccc5C(=O)Nc5cn(C)c(C7CC7)n5)C6)CC4)cn3)nc2n(C2CCCC2)c1=O` (centres unmarked) [CPD-352, 2-((6-(2-(4-(6-((6-acetyl-8-cyclopentyl-5-methyl-7-oxo-7,8-dihydropyrido[2,3-d]pyrimidin-2-yl)amino)pyridin-3-yl)piperazin-1-yl)acetamido)spiro[3.3]heptan-2-yl)amino)-N-(2-cyclopropyl-1-methyl-1H-imidazol-4-yl)-6-(2-hydroxypropan-2-yl)nicotinamide] it is over 100 nM. `[2H]C([2H])([2H])Nc1ccc(C(=O)Nc2cc(C)n(C)n2)c(NC2CC(C(C)NC(=O)CN3CCN(c4ccc(Nc5ncc6c(C)c(C(C)=O)c(=O)n(C7CCCC7)c6n5)nc4)CC3)C2)n1` (centres unmarked) [CPD-353, 2-((3-(1-(2-(4-(6-((6-acetyl-8-cyclopentyl-5-methyl-7-oxo-7,8-dihydropyrido[2,3-d]pyrimidin-2-yl)amino)pyridin-3-yl)piperazin-1-yl)acetamido)ethyl)cyclobutyl)amino)-N-(1,5-dimethyl-1H-pyrazol-3-yl)-6-((methyl-d3)amino)nicotinamide]: the 50% inhibitory concentration (IC50) was over 100 nM. The figure for `CNc1ccc(C(=O)Nc2ccc(N(C)C)nn2)c(NCC2COC3(C2)CN(C(=O)CN2CCN(c4ccc(Nc5ncc6c(C)c(C(C)=O)c(=O)n(C7CCCC7)c6n5)nc4)CC2)C3)n1` (centres unmarked) [CPD-354, 2-(((2-(2-(4-(6-((6-acetyl-8-cyclopentyl-5-methyl-7-oxo-7,8-dihydropyrido[2,3-d]pyrimidin-2-yl)amino)pyridin-3-yl)piperazin-1-yl)acetyl)-5-oxa-2-azaspiro[3.4]octan-7-yl)methyl)amino)-N-(6-(dimethylamino)pyridazin-3-yl)-6-(methylamino)nicotinamide] is over 100 nM; for `CC(=O)c1c(C)c2cnc(Nc3ccc(N4CCN(C(C)CC(=O)N5CC(Nc6nc(NC(C)C)ccc6C(=O)Nc6ccc(N(C)C)nn6)C5)CC4)cn3)nc2n(C2CCCC2)c1=O` (centres unmarked) [CPD-355, 2-((1-(3-(4-(6-((6-acetyl-8-cyclopentyl-5-methyl-7-oxo-7,8-dihydropyrido[2,3-d]pyrimidin-2-yl)amino)pyridin-3-yl)piperazin-1-yl)butanoyl)azetidin-3-yl)amino)-N-(6-(dimethylamino)pyridazin-3-yl)-6-(isopropylamino)nicotinamide] it is 50 to 100 nM.

Consider `CC(=O)c1c(C)c2cnc(Nc3ccc(N4CCC(NCC(=O)N5CC(Nc6nc(NC(C)C)ccc6C(=O)Nc6ccc(N(C)C)nn6)C5)CC4)cn3)nc2n(C2CCCC2)c1=O` [CPD-356, 2-((1-((1-(6-((6-acetyl-8-cyclopentyl-5-methyl-7-oxo-7,8-dihydropyrido[2,3-d]pyrimidin-2-yl)amino)pyridin-3-yl)piperidin-4-yl)glycyl)azetidin-3-yl)amino)-N-(6-(dimethylamino)pyridazin-3-yl)-6-(isopropylamino)nicotinamide], for which the IC50 lay in the range of 50 to 100 nM.
